From publication PMC10100342, “Thiamyxins: Structure and Biosynthesis of Myxobacterial RNA‐Virus Inhibitors” (Angewandte Chemie (International Ed. in English), 2022)

System: DENV-R2A
Conditions: ratio of IC50 values

## C=C1NC(=O)C2(C)CSC(=N2)c2csc(n2)C2(C)CSC(=N2)C(C(C)CC)NC(=O)C(C)NC(=O)C(=CC(C)C)COC(=O)c2csc(n2)C(C(C)C)N(C)C(=O)C(COC)NC1=O (stereo not shown) [Thiamyxin B]
  IC50 against DENV-R2A lower compared to HCov-229E-luc: fourfold
